Inconclusive results and toxic doses are left out. How the source made its calls: active means survival T/C of 150% or more; inactive means T/C below 125% in these data.
System: CD2F1 mice, L1210 leukemia ip, survival T/C
Assay: NCI In Vivo Anticancer Drug Screen. Data for tumor model L1210 Leukemia (intraperitoneal) in CD2F1 (CDF1) mice
Details: higher = longer survival
Method in brief: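 Ratio T/C, where T is the treated-group value and C the vehicle-dosed control value, from mice implanted with a transplantable tumor.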

[1] = endpoint: mean survival time, dose: 12.5 mg/kg/injection, schedule: Q01DX009 (ip), vehicle: saline with Tween-80
[2] = endpoint: mean survival time, dose: 25.0 mg/kg/injection, schedule: Q01DX009 (ip), vehicle: saline with Tween-80
[3] = endpoint: mean survival time, dose: 50.0 mg/kg/injection, schedule: Q01DX009 (ip), vehicle: saline with Tween-80
[4] = endpoint: mean survival time, dose: 6.25 mg/kg/injection, schedule: Q01DX009 (ip), vehicle: saline with Tween-80
[5] = endpoint: mean survival time, dose: 100.0 mg/kg/injection, schedule: Q01DX009 (ip), vehicle: saline with Tween-80
[6] = endpoint: mean survival time, dose: 100.0 mg/kg/injection, schedule: Q04DX002 (ip), vehicle: saline with Tween-80
[7] = endpoint: mean survival time, dose: 200.0 mg/kg/injection, schedule: Q04DX002 (ip), vehicle: saline with Tween-80
[8] = endpoint: mean survival time, dose: 400.0 mg/kg/injection, schedule: Q04DX002 (ip), vehicle: saline with Tween-80
[9] = endpoint: mean survival time, dose: 100.0 mg/kg/injection, schedule: Q04DX003 (ip), vehicle: saline with Tween-80
[10] = endpoint: mean survival time, dose: 200.0 mg/kg/injection, schedule: Q04DX003 (ip), vehicle: saline with Tween-80
[11] = endpoint: mean survival time, dose: 400.0 mg/kg/injection, schedule: Q04DX003 (ip), vehicle: saline with Tween-80

Measured: T/C

CC(C)c1cc(O)ccc1N(C)C (tested in a mixture with another compound)
inactive: endpoint: mean survival time, dose: 32.0 micrograms/kg/injection, schedule: Q04DX003 (ip), vehicle: saline 102 % of control | endpoint: mean survival time, dose: 63.0 micrograms/kg/injection, schedule: Q01DX001 (ip), vehicle: saline 98 % of control | endpoint: mean survival time, dose: 63.0 micrograms/kg/injection, schedule: Q04DX003 (ip), vehicle: saline 101 % of control | endpoint: mean survival time, dose: 125.0 micrograms/kg/injection, schedule: Q01DX001 (ip), vehicle: saline 98 % of control | endpoint: mean survival time, dose: 125.0 micrograms/kg/injection, schedule: Q04DX003 (ip), vehicle: saline 90 % of control

O=c1oc2ccccc2c(O)c1-c1cccc2ccccc12
inactive: [1] 91 % of control | [2] 103 % of control | [3] 100 % of control

CC1(OC(=O)c2ccccc2)CC(C)(C)[N+]([O-])=N1 (stereo not given)
inactive: endpoint: mean survival time, dose: 25.0 mg/kg/injection, schedule: Q01DX009 (ip), vehicle: Klucel (hydroxypropylcellulose) (HPC) 96 % of control | endpoint: mean survival time, dose: 50.0 mg/kg/injection, schedule: Q01DX009 (ip), vehicle: Klucel (hydroxypropylcellulose) (HPC) 96 % of control | endpoint: mean survival time, dose: 100.0 mg/kg/injection, schedule: Q01DX009 (ip), vehicle: Klucel (hydroxypropylcellulose) (HPC) 100 % of control | endpoint: mean survival time, dose: 200.0 mg/kg/injection, schedule: Q01DX009 (ip), vehicle: Klucel (hydroxypropylcellulose) (HPC) 91 % of control

CCCCCCCCCCCCCC[n+]1ccc(C#N)cc1
inactive: endpoint: mean survival time, dose: 7.5 mg/kg/injection, schedule: Q01DX001 (ip), vehicle: saline 97 % of control | endpoint: mean survival time, dose: 7.5 mg/kg/injection, schedule: Q01DX009 (ip), vehicle: saline 100 % of control | endpoint: mean survival time, dose: 15.0 mg/kg/injection, schedule: Q01DX001 (ip), vehicle: saline 92 % of control | endpoint: mean survival time, dose: 15.0 mg/kg/injection, schedule: Q01DX009 (ip), vehicle: saline 103 % of control | endpoint: mean survival time, dose: 30.0 mg/kg/injection, schedule: Q01DX001 (ip), vehicle: saline 100 % of control | endpoint: mean survival time, dose: 30.0 mg/kg/injection, schedule: Q01DX009 (ip), vehicle: saline 107 % of control

O=[N+]([O-])/C(=C/c1ccccc1)c1ccccc1
inactive: [4] 107 % of control | endpoint: mean survival time, dose: 6.25 mg/kg/injection, schedule: Q04DX003 (ip), vehicle: saline with Tween-80 101 % of control | [1] 105 % of control | endpoint: mean survival time, dose: 12.5 mg/kg/injection, schedule: Q04DX003 (ip), vehicle: saline with Tween-80 97 % of control | [2] 103 % of control | endpoint: mean survival time, dose: 25.0 mg/kg/injection, schedule: Q04DX003 (ip), vehicle: saline with Tween-80 101 % of control

CCN(CC)CCC(=O)Nc1cccc2c1C(=O)c1c(c(O)c3ccccc3c1O)C2=O
inactive: endpoint: mean survival time, dose: 6.0 mg/kg/injection, schedule: Q04DX003 (ip), vehicle: saline with Tween-80 100 % of control | endpoint: mean survival time, dose: 12.0 mg/kg/injection, schedule: Q04DX003 (ip), vehicle: saline with Tween-80 100 % of control | endpoint: mean survival time, dose: 24.0 mg/kg/injection, schedule: Q04DX003 (ip), vehicle: saline with Tween-80 100 % of control | endpoint: mean survival time, dose: 48.0 mg/kg/injection, schedule: Q04DX003 (ip), vehicle: saline with Tween-80 103 % of control

CN(C)C(=N)N(C)C
inactive: [2] 98 % of control | [3] 95 % of control | [5] 87 % of control | endpoint: mean survival time, dose: 100.0 mg/kg/injection, schedule: Q04DX003 (ip), vehicle: saline sonified 101 % of control

O=C1CCn2c3ccccc3c3cccc1c32
inactive: [5] 101 % of control | endpoint: mean survival time, dose: 200.0 mg/kg/injection, schedule: Q01DX009 (ip), vehicle: saline with Tween-80 101 % of control | endpoint: mean survival time, dose: 400.0 mg/kg/injection, schedule: Q01DX009 (ip), vehicle: saline with Tween-80 96 % of control

N#CCCCN1CCOCC1
inactive: endpoint: mean survival time, dose: 100.0 mg/kg/injection, schedule: Q01DX009 (ip), vehicle: saline 101 % of control | endpoint: mean survival time, dose: 200.0 mg/kg/injection, schedule: Q01DX009 (ip), vehicle: saline 102 % of control | endpoint: mean survival time, dose: 400.0 mg/kg/injection, schedule: Q01DX009 (ip), vehicle: saline 98 % of control

Nc1cccc2[nH]c(=O)c3ccccc3c12
inactive: endpoint: mean survival time, dose: 100.0 mg/kg/injection, schedule: Q01DX001 (ip), vehicle: carboxymethylcellulose (CMC) 100 % of control | endpoint: mean survival time, dose: 200.0 mg/kg/injection, schedule: Q01DX001 (ip), vehicle: carboxymethylcellulose (CMC) 97 % of control | endpoint: mean survival time, dose: 400.0 mg/kg/injection, schedule: Q01DX001 (ip), vehicle: carboxymethylcellulose (CMC) 100 % of control

C/C=C/COc1c(C)cc(C)cc1/C=C/C
inactive: [6] 94 % of control | [7] 94 % of control | [8] 102 % of control

CCCCCCN=C(N)NC(=O)OC
inactive: [4] 87 % of control | [1] 100 % of control | [2] 100 % of control

O=C(Cn1ccc(=O)[nH]c1=O)c1cc2ccccc2[nH]1
inactive: [6] 93 % of control | [7] 93 % of control | [8] 93 % of control

Cc1ccc(C2(c3ccccc3)OC(=O)c3ccccc32)cc1 (stereo not given)
inactive: [5] 86 % of control | [9] 89 % of control | [10] 87 % of control | [11] 86 % of control

O=C(O)C1CCCCC1C(=O)O.[NH-]C1CCC1.[NH2-].[Pt+2] (stereo not given)
inactive: endpoint: median survival time, dose: 3.12 mg/kg/injection, schedule: Q04DX003 (ip), vehicle: distilled water + Tween-80 107 % of control | endpoint: median survival time, dose: 6.25 mg/kg/injection, schedule: Q04DX003 (ip), vehicle: distilled water + Tween-80 102 % of control | endpoint: median survival time, dose: 12.5 mg/kg/injection, schedule: Q04DX003 (ip), vehicle: distilled water + Tween-80 106 % of control | endpoint: median survival time, dose: 25.0 mg/kg/injection, schedule: Q04DX003 (ip), vehicle: distilled water + Tween-80 102 % of control | endpoint: median survival time, dose: 50.0 mg/kg/injection, schedule: Q04DX003 (ip), vehicle: distilled water + Tween-80 103 % of control

C/C(=C\Cl)CNC(C)C
inactive: [2] 101 % of control | [3] 100 % of control | endpoint: mean survival time, dose: 100.0 mg/kg/injection, schedule: Q01DX001 (ip), vehicle: acetone 98 % of control

Cc1ccc(N2OCCN(C(=O)c3ccc([N+](=O)[O-])cc3)C2c2ccccc2)cc1 (stereo not given)
inactive: [9] 98 % of control | [10] 97 % of control | [11] 98 % of control

O=P(OCC(F)(F)F)(OCC(F)(F)F)OCC(F)(F)F
inactive: [6] 98 % of control | [7] 102 % of control | [8] 105 % of control

OCC1CC=CCC1 (stereo not given)
inactive: [9] 97 % of control | [10] 90 % of control | [11] 95 % of control

[C-]#[O+].[Cl][Sn]([Cl])[Cl].[Cl][Sn]([Cl])[Cl].[Pt].c1cnc2c(c1)ccc1cccnc12
inactive: endpoint: median survival time, dose: 3.12 mg/kg/injection, schedule: Q04DX003 (ip), vehicle: saline with Tween-80 113 % of control | endpoint: median survival time, dose: 6.25 mg/kg/injection, schedule: Q04DX003 (ip), vehicle: saline with Tween-80 109 % of control | endpoint: median survival time, dose: 12.5 mg/kg/injection, schedule: Q04DX003 (ip), vehicle: saline with Tween-80 109 % of control | endpoint: median survival time, dose: 100.0 mg/kg/injection, schedule: Q04DX003 (ip), vehicle: saline with Tween-80 106 % of control

CCC1(C)C(C#N)C(=O)NC(=O)C1C#N (stereo not given)
inactive: endpoint: mean survival time, dose: 50.0 mg/kg/injection, schedule: Q01DX009 (ip), vehicle: saline sonified 96 % of control | endpoint: mean survival time, dose: 100.0 mg/kg/injection, schedule: Q01DX009 (ip), vehicle: saline sonified 90 % of control | [9] 100 % of control | [10] 100 % of control

NC(=O)c1ccc[n+](Cc2c(Cl)cccc2Cl)c1
inactive: [9] 105 % of control | endpoint: median survival time, dose: 0.75 mg/kg/injection, schedule: Q01DX009 (ip), vehicle: saline 102 % of control | endpoint: median survival time, dose: 1.5 mg/kg/injection, schedule: Q01DX009 (ip), vehicle: saline 101 % of control | endpoint: median survival time, dose: 3.0 mg/kg/injection, schedule: Q01DX009 (ip), vehicle: saline 109 % of control | endpoint: median survival time, dose: 6.0 mg/kg/injection, schedule: Q01DX009 (ip), vehicle: saline 102 % of control | endpoint: median survival time, dose: 12.0 mg/kg/injection, schedule: Q01DX009 (ip), vehicle: saline 102 % of control

Source: PubChem BioAssay AID256 (DTP/NCI, 2004)
